From US12559506B2, “Indazole based compounds and associated methods of use” (Arvinas Operations, Inc., priority 2021, dated 2026)
Like-named read-outs stand apart in the source and are kept apart here.

How the values were obtained:
G2019S LRRK2 = molecular target: T1, G2019S LRRK2 (Homo sapiens, UniProt Q5S007, G2019S); assay: LRRK2 degradation assay, HiBit-tagged G2019S LRRK2 expressed from plasmid in HEK293 cells (Nano-Glo Dual-Luciferase); assay type: cell-based; conditions: 24 hours
T1 construct: expressed in transfected cells; host or cells: HEK293 (ATCC CRL-1573), transient transfection, mammalian expression vector with ubiquitin promoter
T1 sequence (Q5S007 whole entry G2019S): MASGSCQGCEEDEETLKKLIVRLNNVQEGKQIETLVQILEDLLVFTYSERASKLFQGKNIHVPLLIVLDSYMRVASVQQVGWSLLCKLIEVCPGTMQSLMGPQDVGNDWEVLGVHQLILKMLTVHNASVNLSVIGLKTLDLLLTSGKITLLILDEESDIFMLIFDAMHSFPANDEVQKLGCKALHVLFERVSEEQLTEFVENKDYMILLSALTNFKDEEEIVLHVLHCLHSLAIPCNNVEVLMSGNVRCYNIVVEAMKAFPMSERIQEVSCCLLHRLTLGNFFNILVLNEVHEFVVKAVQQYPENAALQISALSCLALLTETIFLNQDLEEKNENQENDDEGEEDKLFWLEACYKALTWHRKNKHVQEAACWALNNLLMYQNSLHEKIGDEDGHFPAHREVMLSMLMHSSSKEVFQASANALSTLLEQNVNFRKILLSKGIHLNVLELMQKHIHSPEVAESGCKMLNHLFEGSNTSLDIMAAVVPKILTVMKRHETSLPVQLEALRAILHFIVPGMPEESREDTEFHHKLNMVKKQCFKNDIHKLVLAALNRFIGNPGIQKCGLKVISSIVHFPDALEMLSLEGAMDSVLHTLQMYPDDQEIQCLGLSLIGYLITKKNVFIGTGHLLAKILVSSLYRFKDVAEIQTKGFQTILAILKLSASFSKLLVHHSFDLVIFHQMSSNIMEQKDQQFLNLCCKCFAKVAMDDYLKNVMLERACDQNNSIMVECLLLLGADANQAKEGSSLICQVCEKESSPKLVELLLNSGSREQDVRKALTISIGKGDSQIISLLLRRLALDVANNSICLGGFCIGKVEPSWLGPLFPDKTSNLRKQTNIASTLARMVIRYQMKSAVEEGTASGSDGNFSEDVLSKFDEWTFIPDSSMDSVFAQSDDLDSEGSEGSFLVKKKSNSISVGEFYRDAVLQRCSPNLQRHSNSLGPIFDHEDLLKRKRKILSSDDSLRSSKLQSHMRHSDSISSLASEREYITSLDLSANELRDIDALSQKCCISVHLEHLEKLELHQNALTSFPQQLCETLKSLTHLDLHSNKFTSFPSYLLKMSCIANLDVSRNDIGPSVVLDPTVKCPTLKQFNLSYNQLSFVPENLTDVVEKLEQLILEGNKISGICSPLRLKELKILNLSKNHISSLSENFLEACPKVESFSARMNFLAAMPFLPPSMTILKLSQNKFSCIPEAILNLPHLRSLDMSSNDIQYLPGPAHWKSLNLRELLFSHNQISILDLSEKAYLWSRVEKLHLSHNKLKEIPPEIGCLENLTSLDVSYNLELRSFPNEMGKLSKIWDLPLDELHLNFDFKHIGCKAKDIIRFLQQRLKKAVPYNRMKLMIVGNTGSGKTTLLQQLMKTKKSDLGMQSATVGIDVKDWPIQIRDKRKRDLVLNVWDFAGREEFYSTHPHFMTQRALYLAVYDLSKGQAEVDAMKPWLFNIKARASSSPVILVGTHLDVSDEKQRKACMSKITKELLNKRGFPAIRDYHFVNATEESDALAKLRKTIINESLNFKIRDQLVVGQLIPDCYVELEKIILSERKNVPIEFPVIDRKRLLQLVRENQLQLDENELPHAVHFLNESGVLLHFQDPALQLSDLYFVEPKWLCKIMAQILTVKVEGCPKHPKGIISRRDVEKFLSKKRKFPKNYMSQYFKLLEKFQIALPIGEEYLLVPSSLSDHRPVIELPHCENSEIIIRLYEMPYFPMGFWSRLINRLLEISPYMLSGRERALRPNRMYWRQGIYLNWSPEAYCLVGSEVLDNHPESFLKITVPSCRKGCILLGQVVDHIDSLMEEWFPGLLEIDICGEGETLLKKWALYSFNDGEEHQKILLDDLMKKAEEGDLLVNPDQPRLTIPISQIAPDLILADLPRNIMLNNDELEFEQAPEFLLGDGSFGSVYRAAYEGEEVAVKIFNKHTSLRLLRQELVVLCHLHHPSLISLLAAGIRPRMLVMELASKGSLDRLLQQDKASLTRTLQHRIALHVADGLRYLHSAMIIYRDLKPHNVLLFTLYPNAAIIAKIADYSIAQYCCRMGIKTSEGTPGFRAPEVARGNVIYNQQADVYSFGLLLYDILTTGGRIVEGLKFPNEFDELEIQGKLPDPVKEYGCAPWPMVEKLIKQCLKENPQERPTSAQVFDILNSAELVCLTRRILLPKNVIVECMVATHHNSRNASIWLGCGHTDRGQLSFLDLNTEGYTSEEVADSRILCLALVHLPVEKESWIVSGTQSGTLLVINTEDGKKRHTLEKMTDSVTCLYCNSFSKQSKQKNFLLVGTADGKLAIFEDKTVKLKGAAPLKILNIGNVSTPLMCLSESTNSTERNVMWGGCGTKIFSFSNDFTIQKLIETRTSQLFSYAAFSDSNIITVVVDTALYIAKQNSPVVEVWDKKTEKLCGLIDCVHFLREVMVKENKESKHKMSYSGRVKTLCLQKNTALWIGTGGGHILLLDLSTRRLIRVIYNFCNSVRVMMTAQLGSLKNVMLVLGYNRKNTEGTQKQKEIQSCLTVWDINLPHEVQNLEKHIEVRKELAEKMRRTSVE
Summary of the method: (§1)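 HEK293 cells co-transfected with C-terminal HiBiT-tagged LRRK2 (WT or G2019S, ubiquitin promoter) and firefly luciferase, then dosed 24 h at 37 °C. HiBiT/firefly ratio normalized to DMSO median; DC50 and Dmax from per-plate curve fits, six replicates over two days.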

wildtype LRRK2 = molecular target: T2, wildtype LRRK2 (Homo sapiens, UniProt Q5S007); assay: LRRK2 degradation assay, HiBit-tagged wildtype LRRK2 expressed from plasmid in HEK293 cells (Nano-Glo Dual-Luciferase); assay type: cell-based; conditions: 24 hours; for DC50: read-out: *WT DC50; for Dmax: read-out: **WT Dmax (%)
T2 construct: expressed in transfected cells; host or cells: HEK293 (ATCC CRL-1573), transient transfection, mammalian expression vector with ubiquitin promoter
T2 sequence (Q5S007 whole entry): as the sequence (Q5S007 whole entry G2019S) above, with S2019G counted along it
Summary of the method: as §1

[1] = HiBit-tagged G2019S LRRK2, HEK293 cells
[2] = HiBit-tagged wildtype LRRK2, HEK293 cells
[3] = HiBit-tagged G2019S LRRK2 in HEK293 cells
[4] = HiBit-tagged wildtype LRRK2 in HEK293 cells

Row | DC50 (G2019S LRRK2; [1]) [nM] | DC50 (wildtype LRRK2; [2]) [nM] | DC50 (G2019S LRRK2; [3]) [nM] | Dmax (G2019S LRRK2; [3]) [%] | Dmax (wildtype LRRK2; [4]) [%] | DC50 (wildtype LRRK2; [4]) [nM] | Dmax (G2019S LRRK2; [1]) [%] | Dmax (wildtype LRRK2; [2]) [%] | Structure (SMILES)
1 | ≥ 100 | ≥ 100 |  |  |  |  |  |  | CC1(Oc2ccc3n[nH]c(-c4cc(N5CCC(Cc6cccc(CC7CCN(c8ccc9c(c8)C(=O)N(C8CCC(=O)NC8=O)C9=O)CC7)c6)CC5)ncn4)c3c2)CC1 (stereo not drawn) [Compound 174, 2-(2,6-dioxo-3-piperidyl)-5-[4-[[3-[[1-[6-[5-(1-methylcyclopropoxy)-2H-indazol-3-yl]pyrimidin-4-yl]-4-piperidyl]methyl]phenyl]methyl]-1-piperidyl]isoindoline-1,3-dione]
2 |  |  | < 10 | 50 to 70 | < 50 | < 10 |  |  | CC1(Oc2ccc3[nH]nc(-c4cc(N5CCN(CC6CCN(CC7CCN(c8ccc9c(c8)C(=O)N(C8CCC(=O)NC8=O)C9=O)CC7)CC6)CC5)ncn4)c3c2)CC1 (stereo not drawn) [Compound 76, 2-(2,6-dioxo-3-piperidyl)-5-[4-[[4-[[4-[6-[5-(1-methylcyclopropoxy)-1H-indazol-3-yl]pyrimidin-4-yl]piperazin-1-yl]methyl]-1-piperidyl]methyl]-1-piperidyl]isoindoline-1,3-dione]
3 | 10 to 50 | < 10 |  |  |  |  | < 50 | < 50 | C[C@H]1CN(c2cc(-c3[nH]nc4ccc(OC5(C)CC5)cc34)ncn2)CCN1Cc1cn(CC2CCN(c3ccc4c(c3)C(=O)N(C3CCC(=O)NC3=O)C4=O)CC2)nn1 (stereo partly drawn) [Compound 168, 2-(2,6-dioxo-3-piperidyl)-5-[4-[[4-[[(2S)-2-methyl-4-[6-[5-(1-methylcyclopropoxy)-2H-indazol-3-yl]pyrimidin-4-yl]piperazin-1-yl]methyl]triazol-1-yl]methyl]-1-piperidyl]isoindoline-1,3-dione]
4 |  |  | < 10 | < 50 | 50 to 70 | < 10 |  |  | CC1(Oc2ccc3[nH]nc(-c4ccnc(N5CCN(CC6(F)CCN(C(=O)C7CCN(c8ccc9c(c8)C(=O)N(C8CCC(=O)NC8=O)C9=O)CC7)CC6)CC5)c4)c3c2)CC1 (stereo not drawn) [Compound 97, 2-(2,6-dioxo-3-piperidyl)-5-[4-[4-fluoro-4-[[4-[4-[5-(1-methylcyclopropoxy)-1H-indazol-3-yl]-2-pyridyl]piperazin-1-yl]methyl]piperidine-1-carbonyl]-1-piperidyl]isoindoline-1,3-dione]
5 |  |  | 10 to 50 | < 50 | < 50 | 50 to 100 |  |  | C[C@H]1CN(c2cc(-c3n[nH]c4ccc(OC5(C)CC5)cc34)ncn2)CCN1CC1CCN(CCCNc2cccc3c2CN(C2CCC(=O)NC2=O)C3=O)CC1 (stereo partly drawn) [Compound 142, 3-[4-[3-[4-[[(2S)-2-methyl-4-[6-[5-(1-methylcyclopropoxy)-1H-indazol-3-yl]pyrimidin-4-yl]piperazin-1-yl]methyl]-1-piperidyl]propylamino]-1-oxo-isoindolin-2-yl]piperidine-2,6-dione]
6 |  |  | < 10 | 50 to 70 | < 50 | < 10 |  |  | CC1(Oc2ccc3[nH]nc(-c4cc(N5CCN(CC6(F)CCN(CC7CCN(c8ccc9c(c8)C(=O)N(C8CCC(=O)NC8=O)C9=O)CC7)CC6)CC5)ncn4)c3c2)CC1 (stereo not drawn) [Compound 79, 2-(2,6-dioxo-3-piperidyl)-5-[4-[[4-fluoro-4-[[4-[6-[5-(1-methylcyclopropoxy)-1H-indazol-3-yl]pyrimidin-4-yl]piperazin-1-yl]methyl]-1-piperidyl]methyl]-1-piperidyl]isoindoline-1,3-dione]
7 |  |  | 10 to 50 | 50 to 70 | < 50 | < 10 |  |  | CC1(Oc2ccc3[nH]nc(-c4cc(N5CCC(CN6CCN(CC7CCN(c8cc9c(cc8F)C(=O)N(C8CCC(=O)NC8=O)C9=O)CC7)CC6)CC5)ncn4)c3c2)CC1 (stereo not drawn) [Compound 107, 2-(2,6-dioxo-3-piperidyl)-5-fluoro-6-[4-[[4-[[1-[6-[5-(1-methylcyclopropoxy)-1H-indazol-3-yl]pyrimidin-4-yl]-4-piperidyl]methyl]piperazin-1-yl]methyl]-1-piperidyl]isoindoline-1,3-dione]
8 | < 10 | < 10 |  |  |  |  | < 50 | < 50 | CC1(Oc2ccc3[nH]nc(-c4cc(N5CCO[C@@H](CN6CCN(CC7CCN(c8ccc9c(c8)C(=O)N(C8CCC(=O)NC8=O)C9=O)CC7)CC6)C5)ncn4)c3c2)CC1 (stereo partly drawn) [Compound 153, 2-(2,6-dioxopiperidin-3-yl)-5-{4-[(4-{[(2S)-4-{6-[5-(1-methylcyclopropoxy)-1H-indazol-3-yl]pyrimidin-4-yl}morpholin-2-yl]methyl}piperazin-1-yl)methyl]piperidin-1-yl}-2,3-dihydro-1H-isoindole-1,3-dione]
9 | ≥ 100 | ≥ 100 |  |  |  |  |  |  | CC1(Oc2ccc3[nH]nc(-c4cc(N5CCN(Cc6cccc(CN7CCN(c8ccc9c(c8)C(=O)N(C8CCC(=O)NC8=O)C9=O)CC7)c6)CC5)ncn4)c3c2)CC1 (stereo not drawn) [Compound 170, 2-(2,6-dioxo-3-piperidyl)-5-[4-[[3-[[4-[6-[5-(1-methylcyclopropoxy)-2H-indazol-3-yl]pyrimidin-4-yl]piperazin-1-yl]methyl]phenyl]methyl]piperazin-1-yl]isoindoline-1,3-dione]
10 |  |  | 50 to 100 | < 50 | 50 to 70 | 50 to 100 |  |  | CC1(Oc2ccc3[nH]nc(-c4cc(N5C[C@@H]6[C@H](CN7CCN(CC8CCN(c9ccc%10c(c9)C(=O)N(C9CCC(=O)NC9=O)C%10=O)CC8)CC7)[C@@H]6C5)ncn4)c3c2)CC1 (stereo partly drawn) [Compound 74, 2-(2,6-dioxo-3-piperidyl)-5-[4-[[4-[[(r, 5s, 6s)-3-[6-[5-(1-methylcyclopropoxy)-1H-indazol-3-yl]pyrimidin-4-yl]-3-azabicyclo[3.1.0]hexan-6-yl]methyl]piperazin-1-yl]methyl]-1-piperidyl]isoindoline-1,3-dione]
11 | < 10 | < 10 |  |  |  |  | < 50 | < 50 | CC1(Oc2ccc3[nH]nc(-c4cc(N5CC[C@H](CN6CCN(CC7CCN(c8ccc9c(c8)C(=O)N(C8CCC(=O)NC8=O)C9=O)CC7)CC6)C5)ncn4)c3c2)CC1 (stereo partly drawn) [Compound 166, 2-(2,6-dioxo-3-piperidyl)-5-[4-[[4-[[(3R)-1-[6-[5-(1-methylcyclopropoxy)-1H-indazol-3-yl]pyrimidin-4-yl]pyrrolidin-3-yl]methyl]piperazin-1-yl]methyl]-1-piperidyl]isoindoline-1,3-dione]
12 |  |  | < 10 | < 50 | < 50 | < 10 |  |  | C[C@H]1CN(c2cc(-c3n[nH]c4ccc(OC5(C)CC5)cc34)ncn2)CCN1CC1CCN(CCCNc2cccc3c2C(=O)N(C2CCC(=O)NC2=O)C3=O)CC1 (stereo partly drawn) [Compound 140, 2-(2,6-dioxo-3-piperidyl)-4-[3-[4-[[(2S)-2-methyl-4-[6-[5-(1-methylcyclopropoxy)-2H-indazol-3-yl]pyrimidin-4-yl]piperazin-1-yl]methyl]-1-piperidyl]propylamino]isoindoline-1,3-dione]
13 |  |  | < 10 | 50 to 70 | 50 to 70 | < 10 |  |  | CC1(Oc2ccc3[nH]nc(-c4cc(N5CCN(CC6(F)CCN(CC7CCN(c8ccc9c(c8)CN(C8CCC(=O)NC8=O)C9=O)CC7)CC6)CC5)ncn4)c3c2)CC1 (stereo not drawn) [Compound 110, 3-[5-[4-[[4-fluoro-4-[[4-[6-[5-(1-methylcyclopropoxy)-1H-indazol-3-yl]pyrimidin-4-yl]piperazin-1-yl]methyl]-1-piperidyl]methyl]-1-piperidyl]-1-oxo-isoindolin-2-yl]piperidine-2,6-dione]
14 |  |  | 10 to 50 | < 50 | < 50 | 10 to 50 |  |  | CC1(Oc2ccc3[nH]nc(-c4ccnc(N5CCN(C[C@H]6CC[C@H](CN7CCN(c8ccc9c(c8)C(=O)N(C8CCC(=O)NC8=O)C9=O)CC7)CC6)CC5)c4)c3c2)CC1 (stereo partly drawn) [Compound 102, 2-(2,6-dioxopiperidin-3-yl)-5-(4-{[(1r,4r)-4-[(4-{4-[5-(1-methylcyclopropoxy)-1H-indazol-3-yl]pyridin-2-yl}piperazin-1-yl)methyl]cyclohexyl]methyl}piperazin-1-yl)-2,3-dihydro-1H-isoindole-1,3-dione]
15 |  |  | < 10 | 50 to 70 | 50 to 70 | < 10 |  |  | CC1(Oc2ccc3[nH]nc(-c4cc(N5CCC(C(=O)N6CCC(CN7CCN(c8ccc9c(c8)C(=O)N(C8CCC(=O)NC8=O)C9=O)CC7)CC6)CC5)ncn4)c3c2)CC1 (stereo not drawn) [Compound 86, 2-(2,6-dioxopiperidin-3-yl)-5-(4-{[1-(1-{6-[5-(1-methylcyclopropoxy)-1H-indazol-3-yl]pyrimidin-4-yl}piperidine-4-carbonyl)piperidin-4-yl]methyl}piperazin-1-yl)-2,3-dihydro-1H-isoindole-1,3-dione]
16 |  |  | 10 to 50 | < 50 | < 50 | 10 to 50 |  |  | C[C@H]1CN(c2cc(-c3n[nH]c4ccc(OC5(C)CC5)cc34)ncn2)CCN1CC1CCN(CCCOc2cccc3c2C(=O)N(C2CCC(=O)NC2=O)C3=O)CC1 (stereo partly drawn) [Compound 139, 2-(2,6-dioxo-3-piperidyl)-4-[3-[4-[[(2S)-2-methyl-4-[6-[5-(1-methylcyclopropoxy)-2H-indazol-3-yl]pyrimidin-4-yl]piperazin-1-yl]methyl]-1-piperidyl]propoxy]isoindoline-1,3-dione]
